ChEMBL document CHEMBL3576828, “Acredinones A and B, voltage-dependent potassium channel inhibitors from the sponge-derived fungus Acremonium sp. F9A015” (J Nat Prod, 2015)
pIC50: −log10 of the molar value. Calls of active or inactive are those of the source. The rule behind the calls is not given here.

What was measured:
[1] = biological target: T1, Potassium voltage-gated channel subfamily B member 1 (Homo sapiens) (UniProt Q14721); test: (§1) Inhibition of Kv2.1 channel in […] INS1 cells assessed as inhibition of outward K+ current by electrophysiology/patch clamp technique; format: cell-based
T1 sequence (whole entry): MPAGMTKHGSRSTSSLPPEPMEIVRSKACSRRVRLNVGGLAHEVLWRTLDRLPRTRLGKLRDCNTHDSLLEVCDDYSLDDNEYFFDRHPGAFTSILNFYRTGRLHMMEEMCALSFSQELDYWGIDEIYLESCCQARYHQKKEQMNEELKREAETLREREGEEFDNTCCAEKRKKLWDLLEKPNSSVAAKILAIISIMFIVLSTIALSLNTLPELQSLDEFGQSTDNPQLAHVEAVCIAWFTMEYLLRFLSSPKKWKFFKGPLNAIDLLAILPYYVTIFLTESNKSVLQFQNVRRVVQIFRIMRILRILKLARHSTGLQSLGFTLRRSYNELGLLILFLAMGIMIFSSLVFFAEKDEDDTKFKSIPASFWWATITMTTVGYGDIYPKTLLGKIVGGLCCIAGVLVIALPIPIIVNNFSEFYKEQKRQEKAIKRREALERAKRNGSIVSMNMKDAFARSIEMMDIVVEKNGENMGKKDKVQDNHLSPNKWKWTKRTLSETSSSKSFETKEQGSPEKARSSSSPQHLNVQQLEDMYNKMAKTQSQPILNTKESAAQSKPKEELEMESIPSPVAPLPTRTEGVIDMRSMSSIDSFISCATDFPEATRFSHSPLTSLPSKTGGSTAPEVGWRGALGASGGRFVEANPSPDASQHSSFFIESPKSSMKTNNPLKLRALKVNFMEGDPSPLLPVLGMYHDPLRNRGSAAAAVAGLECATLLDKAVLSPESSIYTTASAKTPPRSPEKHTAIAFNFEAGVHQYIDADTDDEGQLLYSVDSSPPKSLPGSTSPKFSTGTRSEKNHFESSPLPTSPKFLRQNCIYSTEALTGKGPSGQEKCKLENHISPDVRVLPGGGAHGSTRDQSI

[2] = biological target: T2, Potassium voltage-gated channel subfamily B member 1 (Homo sapiens, UniProt Q14721); test: as §1; format: cell-based
T2 sequence (Q14721 whole entry): T1 sequence (whole entry)

Compound	inhibition [1]	pIC50 [2]
COc1cccc(OC)c1C(=O)c1c(O)cc(C)c(OC)c1COC(C)=O	inactive	–
COc1cccc(OC)c1C(=O)c1c(O)cc(C)c(OC)c1CC(=O)c1c(OC)c(C)cc(O)c1C(=O)c1c(OC)cccc1OC	–	6.00
COc1cccc(OC)c1C(=O)c1c(O)cc(C)c(OC)c1C1=C(c2c(OC)cccc2OC)c2c(O)cc(C)c(OC)c2C1=O	–	6.23
